test: log P determination by HPLC (EEC Directive 79/831 Annex V.A8, gradient method); format: physicochemical; details: not given

Point of comparison: `CC(C)(C)c1nn2c(/C=C/C(=O)NC3CCCC3)c(-c3ccccc3Cl)nc2s1` [Example 0809], “Physical data: logP” value 4.12. Against it:
- COc1ccc(-c2nc3sc(C(F)(F)F)nn3c2/C=C/C(=O)NCC2CC2)cc1OC [Example 0660] — lower, 2.95
- Cc1csc2nc(-c3ccccc3Cl)c(/C=C/C(=O)NC3CCCCC3)n12 [Example 0898] — lower, 2.74
- CCN(CC)C(=O)/C=C/c1c(-c2ccc(F)cc2Cl)nc2sc(C(F)(F)F)nn12 [Example 0644] — lower, 3.79
- Cc1cn2c(/C=C/C(=O)NC(C)C(C)(C)C)c(-c3ccccc3Cl)nc2s1 (centres unmarked) [Example 0870] — lower, 3.17
- COc1ccc(-c2nc3sc(C(F)(F)F)nn3c2/C=C/C(=O)NC(C)c2ccccc2)cc1OC (centres unmarked) [Example 0683] — lower, 3.5
- CC(C)NC(=O)/C=C/c1c(-c2ccccc2Cl)nc2sc(C(C)(C)C)nn12 [Example 0802] — lower, 3.33
- Cc1cn2c(/C=C/C(=O)Nc3ccc(Cl)cc3)c(-c3ccccc3Cl)nc2s1 [Example 0877] — lower, 3.57
- CC(C)NC(=O)/C=C/c1c(-c2ccccc2Cl)nc2sc(Br)cn12 [Example 0908] — lower, 3.82
- CC(C)CNC(=O)/C=C/c1c(-c2ccccc2Cl)nc2sc(C(C)(C)C)nn12 [Example 0794] — lower, 3.72
- O=C(/C=C/c1c(-c2ccccc2Cl)nc2sc(-c3ccc(C(F)(F)F)cc3)nn12)NCC(F)(F)C(F)(F)F [Example 0858] — higher, 4.62
- CC(C)(C)CCNC(=O)/C=C/c1c(-c2ccccc2Cl)nc2sc(C(C)(C)C)nn12 [Example 0805] — higher, 4.4
- CC(C)CCNC(=O)/C=C/c1c(-c2ccccc2Cl)nc2sc(C(C)(C)C)nn12 [Example 0798] — within 0.2 log units, 4.11
- O=C(/C=C/c1c(-c2ccccc2Cl)nc2sc(-c3ccc(C(F)(F)F)cc3)nn12)Nc1ccc(OC(F)(F)F)cc1 [Example 0856] — higher, 5.47
- CC(C)C(NC(=O)C=Cc1c(-c2sccc2Cl)nc2sc(C(F)(F)F)nn12)C(F)(F)F (centres unmarked) [Example 0923] — within 0.2 log units, 4.23
- Cc1csc2nc(-c3ccccc3Cl)c(/C=C/C(=O)NC3CCC3)n12 [Example 0896] — lower, 2.26
- COCc1nn2c(/C=C/C(=O)NCC(C)C)c(-c3ccccc3Cl)nc2s1 [Example 0816] — lower, 2.71
- CC(C)(C)c1nn2c(/C=C/C(=O)NCC(F)(F)F)c(-c3ccccc3Cl)nc2s1 [Example 0800] — lower, 3.61
- O=C(/C=C/c1c(-c2ccccc2Cl)nc2sc(-c3ccc(C(F)(F)F)cc3)nn12)NC1CCC(C(F)(F)F)CC1 (centres unmarked) [Example 0843] — higher, 4.86
- O=C(/C=C/c1c(-c2ccccc2Cl)nc2sc(-c3ccc(C(F)(F)F)cc3)nn12)NCC(F)(F)C(F)(F)C(F)(F)F [Example 0859] — higher, 5
- CCC(C)NC(=O)/C=C/c1c(-c2ccccc2Cl)nc2sc(-c3ccc(C(F)(F)F)cc3)nn12 (centres unmarked) [Example 0847] — higher, 4.33
- CC(C)NC(=O)/C=C/c1c(-c2cccnc2Cl)nc2sc(C(F)(F)F)nn12 [Example 0946] — lower, 2.47
- CCC(C)NC(=O)/C=C/c1c(-c2ccc(OC)c(OC)c2)nc2sc(C(F)(F)F)nn12 (centres unmarked) [Example 0661] — lower, 3.14
- CC(C)(C)c1nn2c(/C=C/C(=O)NC3CCC(C(F)(F)F)CC3)c(-c3ccccc3Cl)nc2s1 (centres unmarked) [Example 0799] — higher, 4.32
- COCC(C)NC(=O)/C=C/c1c(-c2ccc(OC)c(OC)c2)nc2sc(C(F)(F)F)nn12 (centres unmarked) [Example 0663] — lower, 2.7
- COc1ccc(-c2nc3sc(C(F)(F)F)nn3c2/C=C/C(=O)NOCC2CC2)cc1OC [Example 0706] — lower, 2.88
- COCc1nn2c(/C=C/C(=O)NCC(C)(C)C)c(-c3ccccc3Cl)nc2s1 [Example 0819] — lower, 3.05
- Cc1csc2nc(-c3ccccc3Cl)c(/C=C/C(=O)NCC(C)(C)C)n12 [Example 0885] — lower, 2.67
- O=C(/C=C/c1c(-c2ccccc2Cl)nc2sc(-c3ccc(C(F)(F)F)cc3)nn12)NC1CC1 [Example 0851] — lower, 3.75
- CC(NC(=O)/C=C/c1c(-c2ccccc2Cl)nc2sc(-c3ccc(C(F)(F)F)cc3)nn12)C(C)(C)C (centres unmarked) [Example 0848] — higher, 4.83
- COCc1nn2c(/C=C/C(=O)Nc3ccc(OC(F)(F)F)cc3)c(-c3ccccc3Cl)nc2s1 [Example 0834] — within 0.2 log units, 4
- O=C(/C=C/c1c(-c2ccccc2Cl)nc2sc(-c3ccc(C(F)(F)F)cc3)nn12)NC1CCC(Cl)CC1 (centres unmarked) [Example 0855] — higher, 5.27
- CC(C)NC(=O)/C=C/c1c(-c2ccc(F)cc2Cl)nc2sc(C(F)(F)C(F)(F)F)nn12 [Example 0972] — lower, 3.79

Point of comparison: `CC(NC(=O)/C=C/c1c(-c2cccc(C(F)(F)F)c2)nc2sc(C(F)(F)F)nn12)c1ccccc1` (centres unmarked) [Example 0402], “Physical data: log P” value 4.46. Against it:
- O=C(/C=C/c1c(-c2ccc(F)cc2)nc2sc(C(F)(F)F)nn12)NC1CCCCC1 [Example 0307] — lower, 3.99
- O=C(/C=C/c1c(-c2cccc(C(F)(F)F)c2)nc2sc(C(F)(F)F)nn12)NC1CCCC1 [Example 0377] — within 0.2 log units, 4.27
- CC(NC(=O)/C=C/c1c(-c2ccc(F)cc2)nc2sc(C(F)(F)F)nn12)c1ccccc1 (centres unmarked) [Example 0331] — lower, 3.9
- O=C(/C=C/c1c(-c2ccc(F)cc2)nc2sc(C(F)(F)F)nn12)NCC1CC1 [Example 0308] — lower, 3.33
- Cc1ccccc1-c1nc2sc(C(F)(F)F)nn2c1/C=C/C(=O)N1CCCCC1 [Example 0293] — lower, 3.85
- CC(ONC(=O)/C=C/c1c(-c2ccc(F)cc2)nc2sc(C(F)(F)F)nn12)c1ccccc1 (centres unmarked) [Example 0355] — lower, 3.81
- O=C(/C=C/c1c(-c2ccc(F)cc2)nc2sc(C(F)(F)F)nn12)N1CCOCC1 [Example 0365] — lower, 2.91
- CCC(NC(=O)C=Cc1c(-c2ccc(F)cc2)nc2sc(C(F)(F)F)nn12)c1ccccc1 (centres unmarked) [Example 0332] — lower, 4.18
- CCN(CC)C(=O)/C=C/c1c(-c2cccc(C(F)(F)F)c2)nc2sc(C(F)(F)F)nn12 [Example 0434] — within 0.2 log units, 4.42
- CCC(CC)NC(=O)/C=C/c1c(-c2ccc(F)cc2)nc2sc(C(F)(F)F)nn12 [Example 0357] — lower, 3.81
- CC(C)C(C)NC(=O)/C=C/c1c(-c2ccc(F)cc2)nc2sc(C(F)(F)F)nn12 (centres unmarked) [Example 0316] — lower, 3.81
- CCN(CC)C(=O)/C=C/c1c(-c2ccccc2Cl)nc2sc(C(F)(F)F)nn12 [Example 0221] — lower, 3.61

Point of comparison: `O=C(/C=C/c1c(-c2cccc(Cl)c2)nc2sc(C(F)(F)F)nn12)NC1CCC1` [Example 0083], “Physical data (logP)” value 3.85. Against it:
- CC(ONC(=O)/C=C/c1c(-c2cccc(Cl)c2)nc2sc(C(F)(F)F)nn12)c1ccccc1 (centres unmarked) [Example 0132] — higher, 4.23
- O=C(/C=C/c1c(-c2ccc(Cl)cc2)nc2sc(C(F)(F)F)nn12)NOCC1CC1 [Example 0060] — lower, 3.59
- O=C(/C=C/c1c(-c2cccc(Cl)c2)nc2sc(C(F)(F)F)nn12)NC1CC1 [Example 0082] — lower, 3.31
- O=C(O)/C=C/c1c(-c2cccnc2Cl)nc2sc(C(F)(F)F)nn12 [VA118] — lower, 2.1
- O=C(/C=C/c1c(-c2ccccc2Cl)nc2sc(C(F)(F)F)nn12)NOCC1CC1 [Example 0211] — lower, 3.18
- O=Cc1c(-c2nccs2)nc2sc(C(F)(F)F)nn12 [IVA113] — lower, 2.43
- O=C(O)/C=C/c1c(-c2sccc2Cl)nc2sc(C(F)(F)F)nn12 [VA126] — lower, 2.72
- CCC(NC(=O)/C=C/c1c(-c2ccc(Cl)cc2)nc2sc(C(F)(F)F)nn12)C1CCCCC1 (centres unmarked) [Example 0045] — higher, 5.31
- CNC(=O)/C=C/c1c(-c2ccc(Cl)cc2)nc2sc(C(F)(F)F)nn12 [Example 0005] — lower, 2.88
- O=Cc1c(-c2ccc(OCc3ccccc3)cc2)nc2sc(C(F)(F)F)nn12 [IVA120] — within 0.2 log units, 4.02
- O=C(/C=C/c1c(-c2cccc(Cl)c2)nc2sc(C(F)(F)F)nn12)NC1CCCCC1 [Example 0085] — higher, 4.46
- CC(NC(=O)/C=C/c1c(-c2ccccc2Cl)nc2sc(C(F)(F)F)nn12)C(F)(F)F (single isomer, unassigned) [Example 0185] — within 0.2 log units, 3.77
- O=C(/C=C/c1c(-c2ccc(Cl)cc2)nc2sc(C(F)(F)F)nn12)NC1CCCCC1 [Example 0014] — higher, 4.37
- O=C(/C=C/c1c(-c2cccc(Cl)c2)nc2sc(C(F)(F)F)nn12)NOCC1CC1 [Example 0130] — lower, 3.63
- CC(C)(C)NC(=O)/C=C/c1c(-c2cccc(Cl)c2)nc2sc(C(F)(F)F)nn12 [Example 0080] — higher, 4.27
- O=C(/C=C/c1c(-c2ccc(Cl)cc2)nc2sc(C(F)(F)F)nn12)NCC1CC1 [Example 0015] — within 0.2 log units, 3.72
- O=C(/C=C/c1c(-c2ccc(Cl)cc2)nc2sc(C(F)(F)F)nn12)NC1CCC1 [Example 0012] — within 0.2 log units, 3.81

same assay, conditions: HPLC gradient method, acetonitrile/0.1% strength aqueous phosphoric acid or formic acid; preparation examples; read-out: log P

`CSC[C@H](C)NC(=O)/C=C/c1c(-c2ccc(Cl)cc2Cl)nc2sc(C(F)(F)F)nn12` [Example 0001, (2E)-3-[6-(2,4-Dichlorophenyl)-2-(trifluoromethyl)imidazo[2,1-b][1,3,4]thiadiazol-5-yl]-N-[(1S)-1-methyl-2-(methylthio)ethyl]acrylamide] gave a chromatographic logP of 3.91.

Source: patent US20090118286A1, “Heterobicyclic Acrylamides” (Bayer Cropscience AG, priority 2005, published 2009)
